Measurements published in ChEMBL document CHEMBL5107975, “HIV nucleoside reverse transcriptase inhibitors” (Eur J Med Chem, 2022).

Assays:
[1] = system: Human immunodeficiency virus 1; test: Antiviral activity against HIV-1; format: functional, organism-based
[2] = Drug elimination in human urine assessed as unchanged drug administered po relative to control; format: ADME, organism-based; conditions: read-out: Drug excretion
[3] = Oral bioavailability in human relative to control; format: ADME, organism-based; conditions: in vivo
[4] = Elimination half life in human administered po; format: ADME; conditions: read-out: LambdaZ (converted)

EC50 [1] [nM] | dose excreted [2] [%] | bioavailability [3] [%] | half-life [4] [h] | Compound
> 1000 | 62 | 100 | 128 | C=C1[C@H](CO)[C@@H](O)C[C@@H]1n1cnc2c(=O)[nH]c(N)nc21.O [ENTECAVIR]
2 | – | – | – | Nc1ccn([C@@H]2CS[C@H](CO)O2)c(=O)n1 [LAMIVUDINE]
